Literature values in article PMC8492600 (Cell Systems, 2021).

How the values were obtained:
HLA-A*02:01 = HLA-A*02:01 (Homo sapiens, UniProt P04439, D140Y/D185E/D98H/E176V/E277Q/G131W/G231S/I119V/I121R/I166T/I218V/L300P/L318F/N151K/N90K/P208A/P217A/Q86G/Q94H/R138H/R169H/T345S)
HLA-B*40:01 = HLA-B*40:01 (Homo sapiens, UniProt P01889, A65T/A93T/A95T/D138N/D98Y/E176V/E69K/N87E/Q56L/Q94N/R180L/S121R/S35A/S48T/T167S/V36M/W171L/Y33H/Y91S)

Row | Sequence | binding of the mutated epitope to HLA-A*02:01 (HLA-A*02:01) | binding of the mutated epitope to HLA-B*40:01 (HLA-B*40:01)
1 | GFMWLSYFI | lose binding | –
2 | MKVTPSGTWL | – | lose binding
